Laboratory results taken from patent US6875578B2, “System for cell-based screening” (priority 1997, dated 2005).

Columns and labels:
caspase-3 = experiment: Caspase-3 biosensor apoptosis assay, BHK cells; assay type: cell-based; conditions: BHK cells transfected with the caspase 3 biosensor
Method: For DNA transfection, BHK cells and MCF-7 cells were cultured to 50-70% confluence in 6 well plates containing 3 ml of minimal Eagle's medium (MEM) with 10% fetal calf serum, 1 mM L-glutamine, 50 μg/ml streptomycin, 50 μg/ml penicillin, 0.1 mM non-essential amino acids, 1 mM sodium pyruvate and 10 μg/ml of bovine insulin (for MCF-7 cell only) at 37° C. in a 5% CO2 incubator for about 36 hours. The cells were washed with serum free MEM media and incubated for 5 hours with 1 ml of transfection mixture containing 1 μg of the appropriate plasmid and 4 μg of lipofectimine (BRL) in the serum free MEM media. Subsequently, the transfection medium was removed and replaced with 3 ml of normal culture media. The transfected cells were maintained in growth medium for at least 16 hours before performing selection of the stable cells based on standard molecular biology methods (Ausubel. et al 1995).
For apoptosis assays, the cells (BHK, MCF-7) stably transfected with the appropriate protease biosensor expression vector were plated on tissue culture treated 96-well plates at 50-60% confluence and cultured overnight at 37° C., 5% CO2. […]
The biosensor response is measured by quantitating the effective cytoplasm-to-nuclear translocation of the signal (see above). […]

L-929 cells = experiment: High-content screen of paclitaxel-induced apoptosis, L-929 cells; assay type: cell-based, mouse
Method: The cells chosen for this study were mouse connective tissue fibroblasts (L-929; ATCC CCL-1) and a highly invasive glioblastoma cell line (SNB-19; ATCC CRL-2219) (Welch et al., In Vitro Cell. Dev. Bid. 31:610, 1995). The day before treatment with an apoptosis inducing drug, 3500 cells were placed into each well of a 96-well plate and incubated overnight at 37° C. in a humidified 5% CO2 atmosphere. The following day, the culture medium was removed from each well and replaced with fresh medium containing various concentrations of paclitaxel (0-50 μM) from a 20 mM stock made in DMSO. The maximal concentration of DMSO used in these experiments was 0.25%. The cells were then incubated for 26 h as above. At the end of the paclitaxel treatment period, each well received fresh medium containing 750 nM MITOTRACKER™ Red (Molecular Probes; Eugene, Oreg.) and 3 μg/ml Hoechst 33342 DNA-binding dye (Molecular Probes) and was incubated as above for 20 mm. Each well on the plate was then washed with HBSS and fixed with 3.7% formaldehyde in HBSS for 15 mm at room temperature. The formaldehyde was washed out with HBSS and the cells were permeabilized for 90 s with 0.5% (v/v) Triton X-100, washed with HBSS, incubated with 2 U ml^−1 BODIPY™ FL phallacidin (Molecular Probes) for 30 mm, and washed with HBSS. The wells on the plate were then filled with 200 μl HBSS, sealed, and the plate stored at 4° C. if necessary. The fluorescence signals from plates stored this way were stable for at least two weeks after preparation. As in the nuclear translocation assay, fluorescence reagents can be designed to convert this assay into a live cell high-content screen.
The fluorescence intensity of intracellular MITOTRACKER™ Red, Hoechst 33342, and BODIPY™ FL phallacidin was measured with the cell screening system as described supra. Morphometric data from each pair of images obtained from each well was also obtained to detect each object in the image field (e.g., cells and nuclei), and to calculate its size, shape, and integrated intensity.
A total of 50-250 cells were measured per image field. For each field of cells, the following calculations were performed: (1) The average nuclear area (μm^2) was calculated by dividing the total nuclear area in a field by the number of nuclei detected. (2) The average nuclear perimeter (μm) was calculated by dividing the sum of the perimeters of all nuclei in a field by the number of nuclei detected in that field. Highly convoluted apoptotic nuclei had the largest nuclear perimeter values. (3) The average nuclear brightness was calculated by dividing the integrated intensity of the entire field of nuclei by the number of nuclei in that field. An increase in nuclear brightness was correlated with increased DNA content. (4) The average cellular brightness was calculated by dividing the integrated intensity of an entire field of cells stained with MITOTRACKER™ dye by the number of nuclei in that field. Because the amount of MITOTRACKER™ dye that accumulates within the mitochondria is proportional to the mitochondrial potential, an increase in the average cell brightness is consistent with an increase in mitochondrial potential. (5) The average cellular brightness was also calculated by dividing the integrated intensity of an entire field of cells stained with BODIPY™ FL phallacidin dye by the number of nuclei in that field. […]

Q: Which results are given for `CC(=O)O[C@H]1C(=O)[C@@]2(C)[C@H]([C@H](OC(=O)c3ccccc3)[C@]3(O)C[C@H](OC(=O)[C@H](O)[C@@H](NC(=O)c4ccccc4)c4ccccc4)C(C)=C1C3(C)C)[C@]1(OC(C)=O)CO[C@@H]1C[C@@H]2O` [paclitaxel]?
A: caspase activation reported by the biosensor (caspase-3): stimulated; sensitivity, each parameter measured (L-929 cells; L-929 cells compared with SNB-19 cells): less sensitive to low concentrations of paclitaxel than were SNB-19 cells; concentration of maximal response in many parameters (L-929 cells; L-929 cells, 26 h): 5 µM; mitochondrial potential (L-929 cells; L-929 cells, any of the concentrations tested (0-50 μM), 26 h): did not show a sharp decrease in mitochondrial potential; nuclear morphology (L-929 cells; L-929 cells, increasing amounts, 26 h): caused nuclei to enlarge and fragment; dose of maximal response relative to SNB-19 cells (L-929 cells; L-929 vs SNB-19 cells): 500 fold
